# Measured values as given in PMC5815904 (Circulation research, 2017).
# Tests used:
# Pannexin 1 (PANX1) [1] = target: T1, Pannexin 1 (PANX1) (Homo sapiens, UniProt Q96RD7); test: whole-cell patch clamp in apoptotic Jurkat cells; format: cell-based
# Target sequence in this assay (Q96RD7 whole entry): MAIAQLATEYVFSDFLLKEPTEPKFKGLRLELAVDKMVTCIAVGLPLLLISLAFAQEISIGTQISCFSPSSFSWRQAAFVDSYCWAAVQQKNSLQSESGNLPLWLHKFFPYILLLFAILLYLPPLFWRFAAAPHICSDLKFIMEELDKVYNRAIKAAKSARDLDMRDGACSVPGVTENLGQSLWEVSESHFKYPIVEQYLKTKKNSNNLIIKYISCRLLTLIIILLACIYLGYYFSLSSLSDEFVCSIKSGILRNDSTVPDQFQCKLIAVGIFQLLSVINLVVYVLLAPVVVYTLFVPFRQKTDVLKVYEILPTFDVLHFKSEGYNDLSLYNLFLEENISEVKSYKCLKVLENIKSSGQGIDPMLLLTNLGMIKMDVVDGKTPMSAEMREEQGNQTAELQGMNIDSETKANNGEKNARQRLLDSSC
# Pannexin 1 (PANX1) [2] = target: T1, Pannexin 1 (PANX1); test: whole-cell patch clamp in HEK293T; format: cell-based
# Target sequence in this assay (Q96RD7 1-379 limits assumed): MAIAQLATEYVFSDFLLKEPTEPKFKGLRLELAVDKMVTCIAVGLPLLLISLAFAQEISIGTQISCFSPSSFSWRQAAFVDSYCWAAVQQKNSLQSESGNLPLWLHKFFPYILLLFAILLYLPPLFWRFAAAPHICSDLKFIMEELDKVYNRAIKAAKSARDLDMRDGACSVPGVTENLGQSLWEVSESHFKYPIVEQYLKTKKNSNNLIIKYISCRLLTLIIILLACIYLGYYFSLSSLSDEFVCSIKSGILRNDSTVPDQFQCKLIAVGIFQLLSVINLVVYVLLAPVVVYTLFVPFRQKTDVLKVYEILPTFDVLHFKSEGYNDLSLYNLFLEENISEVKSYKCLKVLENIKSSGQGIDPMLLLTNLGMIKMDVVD
IC50 (Pannexin 1 (PANX1) [2]) [µM],Structure (SMILES),whole-cell patch clamp in apoptotic Jurkat cells (Pannexin 1 (PANX1) [1])
–,CC1(C)[C@@H](OC(=O)CCC(=O)O)CC[C@]2(C)[C@H]3C(=O)C=C4[C@@H]5C[C@@](C)(C(=O)O)CC[C@]5(C)CC[C@@]4(C)[C@]3(C)CC[C@@H]12 [carbenoxolone],"the current sensitive to spironolactone was fully blocked by carbenoxolone (CBX), a drug known to inhibit PANX1"
8.7 ± 1.5,CC(=O)S[C@@H]1CC2=CC(=O)CC[C@]2(C)[C@H]2CC[C@@]3(C)[C@@H](CC[C@@]34CCC(=O)O4)[C@H]12 [spironolactone],–
